Measured values reported in patent EP4603105A1, “PHARMACEUTICAL COMPOSITION CONTAINING CYCLIC COMPOUND HAVING SELECTIVE KRAS INHIBITORY EFFECT AGAINST HRAS AND NRAS” (CHUGAI SEIYAKU KABUSHIKI KAISHA, priority 2022, dated 2024).
Where two headings read alike, the source gives them in different places. Where a SMILES comes first, the peptide text is derived from it. Bridges are numbered along the chain shown (N, C = ends). [ ]: non-standard residue; d: D form. The star is where a group is joined. hPhe(3-Cl-4-CF3) = N[C@@H](CCc1ccc(C(F)(F)F)c(Cl)c1)C(=O)O; NPrPhe(4-CF3) = CCCN[C@@H](Cc1ccc(C(F)(F)F)cc1)C(=O)O; NMeGly(cPent) = CN[C@H](C(=O)O)C1CCCC1; Hyp = O=C(O)[C@@H]1C[C@@H](O)CN1; NMeD = CN[C@@H](CC(=O)O)C(=O)O; NMeL = CN[C@@H](CC(C)C)C(=O)O; Morpholide = C1CN(*)CCO1; Ac5c = NC1(C(=O)O)CCCC1; Sar = CNCC(=O)O

Assays:
[1] = target: GDP-bound NRAS wild-type protein (Homo sapiens, UniProt P01111); assay: Binding to NRAS by surface plasmon resonance (SPR), KD and KD ratio to KRAS
How it was run: (§1)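 Captured GDP-RAS (~100–300 RU) was exposed to increasing compound concentrations, 75 s per step, in running buffer with 10 µM GDP, 10 mM MgCl2 and 4% DMSO at pH 7.4.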

HRAS wild-type protein = HRAS wild-type protein (Homo sapiens, UniProt P01112); assay: Binding to HRAS by surface plasmon resonance (SPR), KD and KD ratio to KRAS
How it was run: as §1

[2] = system: human lung cancer strain NCI-H441; format: cell-based
How it was run: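 Step one: dispense the test compound in serial DMSO dilutions. Step three: add the reagent and measure […].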

[3] = ratio of KD value for GDP-bound NRAS wild-type protein to KD value for KRAS (SPR)
[4] = ratio of KD value for HRAS wild-type protein to KD value for KRAS (SPR)
[5] = ratio of KD for GDP-bound NRAS wild-type protein to KD for KRAS
[6] = ratio of KD for HRAS wild-type protein to KD for KRAS
[7] = ratio of the KD value with respect to GDP-bound NRAS wild-type protein to the KD value with respect to KRAS
[8] = ratio of the KD value with respect to HRAS wild-type protein to the KD value with respect to KRAS

GDP-bound NRAS wild-type protein, sequence (P01111 whole entry): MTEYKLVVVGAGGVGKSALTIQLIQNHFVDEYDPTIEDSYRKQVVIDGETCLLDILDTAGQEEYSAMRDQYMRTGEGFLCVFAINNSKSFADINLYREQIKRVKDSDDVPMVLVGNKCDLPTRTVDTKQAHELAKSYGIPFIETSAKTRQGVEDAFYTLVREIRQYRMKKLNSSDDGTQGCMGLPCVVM
HRAS wild-type protein, sequence (P01112 whole entry): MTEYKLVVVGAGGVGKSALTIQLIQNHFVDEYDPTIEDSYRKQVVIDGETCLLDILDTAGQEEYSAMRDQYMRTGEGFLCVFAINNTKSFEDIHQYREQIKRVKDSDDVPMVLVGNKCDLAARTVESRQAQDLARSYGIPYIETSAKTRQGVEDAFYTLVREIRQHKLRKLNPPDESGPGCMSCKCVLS

Structure (SMILES)	NRAS /KRAS [1, 3]	HRAS /KRAS (HRAS wild-type protein; [4])	IC50 [2] [nM]	NRAS /KRAS [1, 5]	HRAS /KRAS (HRAS wild-type protein; [6])	NRAS /KRAS [1, 7]	HRAS /KRAS (HRAS wild-type protein; [8])	IC50 ([2]; NCI-H441 cells, 4 days, CellTiter-Glo, read-out: NCl-H441 IC50) [nM]
CCO[C@@H]1C[C@H]2C(=O)N(C)C3(CCC3)C(=O)N(C)[C@@H](C3CCCC3)C(=O)N(C)[C@H](C(=O)N(C)C)CC(=O)N(C)[C@@H](CC(C)C)C(=O)N[C@@H]([C@@H](C)CC)C(=O)N(C)CC(=O)N(C)[C@H]3C/C=C\CCN(C3=O)[C@@H](Cc3ccc(C)cc3)C(=O)N(C)CC(=O)N[C@@H](CCc3cc(F)c(C(F)(F)F)c(F)c3)C(=O)N2C1 [PP1790]	A (a compound having 10 or more and less than 20 is denoted as A)	B (a compound having 3 or more and less than 10 is denoted as B)	1.7					
CCC[C@H]1C(=O)N[C@@H]([C@@H](C)CC)C(=O)N(C)CC(=O)N(C)[C@H]2C/C=C\CCN(C2=O)[C@@H](Cc2ccc(C)cc2)C(=O)N(C)CC(=O)N[C@@H](CCc2cc(F)c(C(F)(F)F)c(F)c2)C(=O)N2C[C@H](OCC)C[C@H]2C(=O)N(C)C2(CCC2)C(=O)N(C)[C@@H](C2CCCC2)C(=O)N(C)[C@H](C(=O)N2CCCCC2)CC(=O)N1C [PP3119]			3.5	A (a compound having 10 or more and less than 20 is denoted as A)	A (a compound having 10 or more and less than 20 is denoted as A)			
CCO[C@@H]1C[C@H]2C(=O)NC3(CCC3)C(=O)N(C)[C@@H](C3CCCC3)C(=O)N(C)[C@H](C(=O)N(C)C)CC(=O)N(C)[C@@H](CC3CCCC3)C(=O)N[C@@H]([C@@H](C)CC)C(=O)N(C)CC(=O)N(C)[C@H]3C/C=C\CCN(C3=O)[C@@H](Cc3ccc(C)cc3)C(=O)N(C)CC(=O)N[C@@H](CCc3cc(C)c(C(F)F)c(C)c3)C(=O)N2C1 [PP2675]			138	A (a compound having 10 or more and less than 20 is denoted as A)	A (a compound having 10 or more and less than 20 is denoted as A)			
CCC[C@H]1C(=O)N[C@@H]([C@@H](C)CC)C(=O)N(C)CC(=O)N(C)[C@H]2C/C=C\CCN(C2=O)[C@@H](Cc2ccc(C)cc2)C(=O)N(C)CC(=O)N[C@@H](CCc2ccc(C(F)(F)F)c(Cl)c2)C(=O)N2C[C@H](OCC)C[C@H]2C(=O)NC2(CC(C)(C)C2)C(=O)N(C)[C@@H](CC(C)(C)C)C(=O)N(C)[C@H](C(=O)N(C)C)CC(=O)N1C [PP2230]			7			A (a compound having 10 or more and less than 20 is denoted as A)	A (a compound having 10 or more and less than 20 is denoted as A)	
CCC[C@H]1C(=O)N[C@@H]([C@@H](C)CC)C(=O)N(C)CC(=O)N(C)[C@H]2C/C=C\CCN(C2=O)[C@@H](Cc2ccc(C(F)(F)F)cc2)C(=O)N(C)CC(=O)N[C@@H](CCc2cc(F)c(C(F)F)c(OC)c2)C(=O)N2C[C@H](OCC)C[C@H]2C(=O)NC2(CC(C)(C)C2)C(=O)N(C)[C@@H](C2CCCC2)C(=O)N(C)[C@H](C(=O)N(C)C)CC(=O)N1C [PP2867]				A (a compound having 10 or more and less than 20 is denoted as A)	A (a compound having 10 or more and less than 20 is denoted as A)			17.1
CC[C@H](C)[C@@H]1NC(=O)[C@@H]2CCCCc3ccc(cc3)C[C@@H](C(=O)N(C)CC(=O)N[C@@H](CCc3ccc(C(F)(F)F)c(OC)c3)C(=O)N3C[C@H](OC4CCCC4)C[C@H]3C(=O)NC3(CC(C)(C)C3)C(=O)N(C)[C@@H](C3CCCC3)C(=O)N(C)[C@H](C(=O)N(C)C)CC(=O)N2C)N2CC/C=C\C[C@@H](C2=O)N(C)C(=O)CN(C)C1=O [PP3080]			4.3	A (a compound having 10 or more and less than 20 is denoted as A)	B (a compound having 3 or more and less than 10 is denoted as B)			
CC[C@H](C)[C@@H]1NC(=O)[C@H](CC(C)C)N(C)C(=O)C[C@@H](C(=O)N2CCOCC2)N(C)C(=O)[C@H](C2CCCC2)N(C)C(=O)C2(CCCC2)NC(=O)[C@@H]2CCCN2C(=O)[C@H](CCc2cc(F)c(C(F)(F)F)c(F)c2)NC(=O)CN(C)C(=O)[C@H](Cc2ccc(C(F)(F)F)cc2)N2CCCC[C@@H](C2=O)N(C)C(=O)[C@@H]2CCCN2C1=O [PP0547]			21.5			B (a compound having 3 or more and less than 10 is denoted as B)	B (a compound having 3 or more and less than 10 is denoted as B)	
CCC(CC)[C@H]1C(=O)N(C)[C@H](C(=O)N2CCCC2)CC(=O)N(C)[C@H]2CCC/C=C/c3ccc(cc3)C[C@@H](C(=O)N(C)CC(=O)N[C@@H](CCc3ccc(Cl)c(Cl)c3)C(=O)N3CCC[C@H]3C(=O)NC3(CC(C)(C)C3)C(=O)N1C)N1CC/C=C\C[C@@H](C1=O)N(C)C(=O)CN(C)C(=O)[C@H]([C@@H](C)CC)NC2=O [PP2604]			20.8	AA (a compound having 20 or more is denoted as AA)	A (a compound having 10 or more and less than 20 is denoted as A)			
CCO[C@@H]1C[C@H]2C(=O)NC3(CC(C)(C)C3)C(=O)N(C)[C@@H](C3CCCC3)C(=O)N(C)[C@H](C(=O)N(C)C)CC(=O)N(C)[C@@H](CC(C)C)C(=O)N[C@@H]([C@@H](C)CC)C(=O)N(C)CC(=O)N(C)[C@H]3C/C=C\CCN(C3=O)[C@@H](Cc3ccc(C)cc3F)C(=O)N(C)CC(=O)N[C@@H](CCc3ccc(C(F)(F)F)c(OC)c3)C(=O)N2C1 [PP2688]			6.9	A (a compound having 10 or more and less than 20 is denoted as A)	B (a compound having 3 or more and less than 10 is denoted as B)			
CCC[C@H]1C(=O)N[C@@H]([C@@H](C)CC)C(=O)N(C)CC(=O)N(C)[C@H]2C/C=C\CCN(C2=O)[C@@H](Cc2ccc(C(F)(F)F)cc2)C(=O)N(C)CC(=O)N[C@@H](CCc2ccc(Cl)c(Cl)c2)C(=O)N2CC[C@H]2C(=O)NC2(CC(C)(C)C2)C(=O)N(C)[C@@H](C(CC)CC)C(=O)N(C)[C@H](C(=O)N(C)C)CC(=O)N1C [PP2921]			160	AA (a compound having 20 or more is denoted as AA)	A (a compound having 10 or more and less than 20 is denoted as A)			
CCCN1C(=O)CN(C)C(=O)CNC(=O)[C@H]([C@@H](C)CC)NC(=O)[C@H](CC(C)C)N(C)C(=O)C[C@@H](C(=O)N2CCOCC2)N(C)C(=O)[C@H](C2CCCC2)N(C)C(=O)C2(CCCC2)NC(=O)[C@@H]2C[C@@H](OCC)CN2C(=O)[C@H](CCc2ccc(C(F)(F)F)c(Cl)c2)NC(=O)CN(C)C(=O)[C@@H]1Cc1ccc(C(F)(F)F)cc1 [PP0396] ([NMeL]IG[Sar][NPrPhe(4-CF3)][Sar][hPhe(3-Cl-4-CF3)][Hyp](Et)[Ac5c][NMeGly(cPent)][NMeD]-Morpholide; lactam N-11)			0.9			B (a compound having 3 or more and less than 10 is denoted as B)	C (A compound having a KD ratio of 0.1 or more and less than 3 is denoted as C)	
CC[C@H](C)[C@@H]1NC(=O)[C@H](CC2CCCC2)N(C)C(=O)C[C@@H](C(=O)N(C)C)N(C)C(=O)[C@@H](C2CCCC2)N(C)C(=O)C2(CCC2)NC(=O)[C@@H]2[C@@H](OCC(F)F)CCN2C(=O)[C@@H](CCc2cc(F)c(C(F)(F)F)c(F)c2)NC(=O)CN(C)C(=O)[C@@H](Cc2ccc(C)cc2)N2CC/C=C\C[C@H](C2=O)N(C)C(=O)CN(C)C1=O [PP1536]	A (a compound having 10 or more and less than 20 is denoted as A)	B (a compound having 3 or more and less than 10 is denoted as B)	24.8					
CCC[C@H]1C(=O)N[C@@H]([C@@H](C)CC)C(=O)N(C)CC(=O)N(C)[C@H]2C/C=C\CCN(C2=O)[C@@H](Cc2ccc(C(F)(F)F)cc2)C(=O)N(C)CC(=O)N[C@@H](CCc2cc(F)c(C(F)(F)F)c(F)c2)C(=O)N2C[C@H](OCC)C[C@H]2C(=O)NC2(CC(C)(C)C2)C(=O)N(C)[C@@H]([C@@H](C)CC)C(=O)N(C)[C@H](C(=O)N(C)C)CC(=O)N1C [PP1941]			9.2			A (a compound having 10 or more and less than 20 is denoted as A)	A (a compound having 10 or more and less than 20 is denoted as A)	
CCC[C@@H]1C[C@H]2C(=O)NC3(CCCC3)C(=O)N(C)[C@@H](C3CCCC3)C(=O)N(C)[C@H](C(=O)N(C)CC)CC(=O)N(C)[C@@H](C)C(=O)N[C@@H]([C@@H](C)CC)C(=O)N(C)CC(=O)N(C)[C@H]3C/C=C\CCN(C3=O)[C@@H](Cc3ccc(C(F)(F)F)cc3)C(=O)N(C)CC(=O)N[C@@H](CCc3cc(F)c(C(F)(F)F)c(F)c3)C(=O)N2C1 [PP2272]			106			AA (a compound having 20 or more is denoted as AA)	A (a compound having 10 or more and less than 20 is denoted as A)	
CCO[C@@H]1C[C@H]2C(=O)NC3(CCC3)C(=O)N(C)[C@@H](C3CCCC3)C(=O)N(C)[C@H](C(C)C)CC(=O)N(C)[C@@H](CC)C(=O)N[C@@H]([C@@H](C)CC)C(=O)N(C)CC(=O)N(C)[C@H]3C/C=C\CCN(C3=O)[C@@H](CC3CCCCC3)C(=O)N(C)CC(=O)N[C@@H](CCc3cc(F)c(C(F)(F)F)c(F)c3)C(=O)N2C1 [PP1601]	B (a compound having 3 or more and less than 10 is denoted as B)	A (a compound having 10 or more and less than 20 is denoted as A)	78.6					
CC[C@H](C)[C@@H]1NC(=O)[C@H](CC(C)C)N(C)C(=O)C[C@@H](C(=O)N(C)C)N(CCC2CCCC2)C(=O)[C@H](C2CCCC2)N(C)C(=O)C2(CCC2)NC(=O)[C@@H]2CC(F)(F)CN2C(=O)[C@H](CCc2ccc(C(F)(F)F)c(Cl)c2)NC(=O)CN(C)C(=O)[C@H](Cc2ccc(F)cc2)N2CCCCC[C@@H](C2=O)N(C)C(=O)CN(C)C1=O [PP0977]			1120	B (a compound having 3 or more and less than 10 is denoted as B)	A (a compound having 10 or more and less than 20 is denoted as A)			
